Data set [1] deals with alpha-1 adrenergic receptor. The settings on record: cited from earlier work.
Data set [2] has as its target NR2B-containing NMDA receptors (Homo sapiens, UniProt Q05586+Q13224). The settings on record: voltage-independent and non-competitive manner; cited from earlier work.
The next data set concerns acute and chronic pain. The settings on record: in vivo; cited from earlier work.
The subject of data set [3] is thermal stimulation of the lesioned paw. Nature of the data set: effect of agents on thermal stimulation of the lesioned paw. It is filed as in vivo.
Another data set relates to alpha1-adrenoceptor. Nature of the data set: hypotension liability (alpha1-adrenoceptor antagonism).
A further data set relates to neuropathic pain. Put plainly: model of neuropathic pain (Bennett model). It is filed as in vivo. The source says:
Evidence of the incorrect conclusion reached by Chenard et al., 1991, supra, is provided by experiments conducted in a Bennett model (Bennett et al, 1988, Pain 33(1):87-107). The results are shown in the accompanying drawing.

“Also recorded” adds a separate entry of the source.

Chain of NR2B-containing NMDA receptors (Q13224 27-1484, other chains not shown): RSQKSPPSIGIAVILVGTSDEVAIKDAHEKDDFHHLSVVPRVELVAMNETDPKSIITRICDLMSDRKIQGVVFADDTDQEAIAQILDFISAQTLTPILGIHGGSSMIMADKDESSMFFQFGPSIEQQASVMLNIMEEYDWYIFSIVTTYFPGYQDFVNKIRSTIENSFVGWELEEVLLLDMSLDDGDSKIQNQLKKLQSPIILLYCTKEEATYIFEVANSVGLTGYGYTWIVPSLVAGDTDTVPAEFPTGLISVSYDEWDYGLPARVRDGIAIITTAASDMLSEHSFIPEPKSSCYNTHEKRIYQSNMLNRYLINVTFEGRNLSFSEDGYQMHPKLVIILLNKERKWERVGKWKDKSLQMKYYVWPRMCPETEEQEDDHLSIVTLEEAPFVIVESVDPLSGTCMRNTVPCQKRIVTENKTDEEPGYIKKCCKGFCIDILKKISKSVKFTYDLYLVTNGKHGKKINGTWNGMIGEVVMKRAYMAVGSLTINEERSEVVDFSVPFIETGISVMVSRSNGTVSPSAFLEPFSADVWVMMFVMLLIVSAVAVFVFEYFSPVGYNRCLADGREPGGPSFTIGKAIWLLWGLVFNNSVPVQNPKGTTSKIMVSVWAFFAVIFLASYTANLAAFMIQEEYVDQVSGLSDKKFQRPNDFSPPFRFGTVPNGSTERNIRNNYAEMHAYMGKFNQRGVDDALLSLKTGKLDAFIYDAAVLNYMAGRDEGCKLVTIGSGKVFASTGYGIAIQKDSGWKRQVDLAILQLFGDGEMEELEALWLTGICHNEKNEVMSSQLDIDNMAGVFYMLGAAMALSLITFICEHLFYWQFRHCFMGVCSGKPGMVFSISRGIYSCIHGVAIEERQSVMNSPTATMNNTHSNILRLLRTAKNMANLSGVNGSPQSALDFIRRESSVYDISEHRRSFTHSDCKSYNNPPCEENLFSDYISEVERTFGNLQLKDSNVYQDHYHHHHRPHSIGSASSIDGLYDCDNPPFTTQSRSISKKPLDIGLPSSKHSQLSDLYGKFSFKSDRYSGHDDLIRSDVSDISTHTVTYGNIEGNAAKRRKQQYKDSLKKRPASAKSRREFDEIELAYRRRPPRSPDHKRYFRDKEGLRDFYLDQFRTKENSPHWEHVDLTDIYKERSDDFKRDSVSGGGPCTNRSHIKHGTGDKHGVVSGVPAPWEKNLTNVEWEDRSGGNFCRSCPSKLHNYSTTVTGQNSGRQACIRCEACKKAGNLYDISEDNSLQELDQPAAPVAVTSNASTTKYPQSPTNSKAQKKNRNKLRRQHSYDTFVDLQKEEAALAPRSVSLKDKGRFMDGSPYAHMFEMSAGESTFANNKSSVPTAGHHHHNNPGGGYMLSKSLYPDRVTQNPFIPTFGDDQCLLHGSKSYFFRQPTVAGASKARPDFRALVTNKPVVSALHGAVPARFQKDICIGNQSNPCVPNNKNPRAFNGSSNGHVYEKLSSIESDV

Regarding `CC(C(O)c1ccc(O)cc1)N1CCC(Cc2ccccc2)CC1` (stereo not shown) [Ifenprodil, 2-(4-benzylpiperidino)-1-(4-hydroxyphenyl)-1-propanol], the “alpha-1 adrenergic receptor binding” value in data set [1] is “potent alpha-1 adrenergic receptor binding properties”. Besides, the “block of NR2B-containing NMDA receptors” value in data set [2] is reported as “selectively blocks NR2B-containing NMDA receptors”. For the same compound, the “anti-nociceptive activity in animal models of acute and chronic pain” value with acute and chronic pain is on record as “exhibits anti-nociceptive activity”. In addition, the “effectiveness on thermal stimulation of the lesioned paw relative to comparators” value in data set [3] (ifenprodil 3, 10 and 30 mg/kg ip, gabapentin 30 mg/kg ip, morphine 8 mg/kg ip) is “more effective than gabapentin; also recorded: almost as effective as morphine”.
In the case of `CC(C(O)c1ccc(O)cc1)N1CCC(Cc2ccccc2)CC1` (single isomer, unassigned; (-)) [(−)-threo-ifenprodil], the “hypotension liability (alpha1-adrenoceptor antagonism) versus the other enantiomers” value in the data set with alpha1-adrenoceptor is listed as “lower hypotension liability”. For the same compound, the “efficacy versus the other enantiomers in a model of neuropathic pain” value in the data set with neuropathic pain is given as “does not produce a significant increase in efficacy over the other enantiomers”. Further, the “effectiveness on thermal stimulation of the lesioned paw, comparison of enantiomers” value in data set [3] (3 mg/kg ip) is listed as “the most effective enantiomer”.

The values above are taken from US20050222205A1, “Treatment of pain with ifendropil” (priority 2002, published 2005).
